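A five-concentration, 48-hour dose response in 96-well plates underlies each endpoint, interpolated linearly between surrounding concentrations. TGI: concentration producing complete growth inhibition.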
How the values were obtained:
Assay in all cases: inhibition of tumour cell growth, NCI panel, 48 h
[1] = test system: UACC-62 melanoma
[2] = test system: DU-145 prostate
[3] = test system: SF-539 CNS
[4] = test system: SF-295 CNS
[5] = test system: MOLT-4 leukemia
[6] = test system: UACC-257 melanoma
[7] = test system: HT29 colon
[8] = test system: UO-31 renal
[9] = test system: MCF7 breast
[10] = test system: SN12C renal
[11] = test system: SK-MEL-5 melanoma
[12] = test system: K-562 leukemia
[13] = test system: IGROV1 ovarian
[14] = test system: A549 NSCLC
[15] = test system: OVCAR-3 ovarian
[16] = test system: OVCAR-5 ovarian
[17] = test system: TK-10 renal
[18] = test system: CAKI-1 renal
[19] = test system: COLO 205 colon
[20] = test system: SF-268 CNS
[21] = test system: NCI/ADR-RES ovarian
[22] = test system: NCI-H522 lung
[23] = test system: NCI-H226 lung
[24] = test system: LOX IMVI melanoma
[25] = test system: SW-620 colon
[26] = test system: CCRF-CEM leukemia
[27] = test system: SK-MEL-28 melanoma
[28] = test system: SR leukemia
[29] = test system: RXF 393 renal
[30] = test system: MDA-MB-435
[31] = test system: 786-0 renal
[32] = test system: PC-3 prostate
[33] = test system: NCI-H460 lung
[34] = test system: M14 melanoma
[35] = test system: SK-OV-3 ovarian
[36] = test system: HCT-116 colon
[37] = test system: MDA-MB-231 breast
[38] = test system: A498 renal
[39] = test system: SK-MEL-2 melanoma
[40] = test system: HCC-2998 colon
[41] = test system: SNB-19 CNS
[42] = test system: EKVX NSCLC
[43] = test system: NCI-H23 lung
[44] = test system: MDA-N
[45] = test system: RPMI-8226 leukemia
[46] = test system: HOP-62 NSCLC
[47] = test system: T-47D breast
[48] = test system: SNB-75 CNS
[49] = test system: OVCAR-4 ovarian
[50] = test system: MALME-3M melanoma
[51] = test system: OVCAR-8 ovarian
[52] = test system: ACHN renal
[53] = test system: KM12 colon
[54] = test system: HCT-15 colon
[55] = test system: HS 578T breast
[56] = test system: BT-549 breast
[57] = test system: U251 CNS
[58] = test system: HOP-92 NSCLC

CC1=CC(C)C(C)N(CCNC(=O)Nc2ccccc2)c2ccccc21 (configuration not stated)
TGI [1]: 49.4 µM
TGI [2]: > 100 µM
TGI [3]: 68.3 µM
TGI [4]: 40.6 µM
TGI [5]: 64.4 µM
TGI [6]: 42.7 µM
TGI [7]: 32.1 µM
TGI [8]: 98.6 µM
TGI [9]: 50.3 µM
TGI [10]: > 100 µM
TGI [11]: 27.8 µM
TGI [12]: > 100 µM
TGI [13]: > 100 µM
TGI [14]: 55.7 µM
TGI [15]: 51.2 µM
TGI [16]: 92.6 µM
TGI [17]: 78.2 µM
TGI [18]: 49.6 µM
TGI [19]: 32.6 µM
TGI [20]: > 100 µM
TGI [21]: 67.9 µM
TGI [22]: 40.2 µM
TGI [23]: 72.9 µM
TGI [24]: 24.3 µM
TGI [25]: 83.6 µM
TGI [26]: 62.8 µM
TGI [27]: > 100 µM
TGI [28]: 46.4 µM
TGI [29]: 40.3 µM
TGI [30]: 75.1 µM
TGI [31]: > 100 µM
TGI [32]: 69.2 µM
TGI [33]: 74.4 µM
TGI [34]: 70 µM
TGI [35]: 65.1 µM
TGI [36]: 35 µM
TGI [37]: 31.1 µM
TGI [38]: 66 µM
TGI [39]: 56.2 µM
TGI [40]: 61.1 µM
TGI [41]: 85.2 µM
TGI [42]: 76.3 µM
TGI [43]: 49.1 µM
TGI [44]: > 100 µM
TGI [45]: 51.8 µM
TGI [46]: 63.4 µM
TGI [47]: 61.2 µM
TGI [48]: 82.4 µM
TGI [49]: > 100 µM
TGI [50]: 70.2 µM
TGI [51]: 54.3 µM
TGI [52]: 63.7 µM
TGI [53]: 57.9 µM
TGI [54]: 72 µM
TGI [55]: 30.3 µM

COC(=O)[C@H](CCSC)NC(=O)c1ccc(CNC(=O)/C=C/c2cccc(Oc3ccccc3)c2)cc1
TGI [1]: 38.2 µM
TGI [2]: > 100 µM
TGI [3]: > 100 µM
TGI [4]: > 100 µM
TGI [5]: 33.4 µM
TGI [6]: 26.9 µM
TGI [7]: > 100 µM
TGI [8]: > 100 µM
TGI [9]: > 100 µM
TGI [10]: > 100 µM
TGI [11]: 34.5 µM
TGI [12]: > 78.8 µM
TGI [13]: > 73.2 µM
TGI [14]: > 100 µM
TGI [15]: > 93.6 µM
TGI [16]: > 100 µM
TGI [17]: > 87 µM
TGI [18]: > 80.3 µM
TGI [19]: 50.5 µM
TGI [20]: > 100 µM
TGI [21]: > 100 µM
TGI [56]: > 100 µM
TGI [22]: > 100 µM
TGI [23]: > 62.9 µM
TGI [24]: > 100 µM
TGI [57]: > 100 µM
TGI [25]: > 100 µM
TGI [26]: > 100 µM
TGI [27]: 34.2 µM
TGI [28]: > 100 µM
TGI [29]: 55.4 µM
TGI [30]: 32.9 µM
TGI [31]: > 100 µM
TGI [32]: > 100 µM
TGI [33]: > 100 µM
TGI [34]: 26.8 µM
TGI [35]: > 100 µM
TGI [36]: > 100 µM
TGI [37]: > 83.5 µM
TGI [38]: 48.3 µM
TGI [39]: 32.8 µM
TGI [40]: > 84 µM
TGI [41]: > 100 µM
TGI [42]: > 100 µM
TGI [43]: > 92.1 µM
TGI [45]: > 100 µM
TGI [58]: 28.1 µM
TGI [46]: > 100 µM
TGI [47]: 27 µM
TGI [48]: > 100 µM
TGI [49]: > 90.6 µM
TGI [50]: 37.8 µM
TGI [51]: > 100 µM
TGI [52]: > 100 µM
TGI [53]: > 100 µM
TGI [54]: > 100 µM
TGI [55]: > 100 µM
